“And” between values parts separate entries of the source, which are not always exact repeats. Equal entries are not always repeated. Blank lines part the entries; values can stand above or below the compound they belong to.
Columns and labels:
[1] = biological target: T1, modified sfPFK-M enzyme (47 kDa fragment) (Homo sapiens, UniProt P08237); test: PFK1 enzymatic assay, modified sfPFK-M; assay type: biochemical
T1 sequence (P08237 2-390 limits assumed): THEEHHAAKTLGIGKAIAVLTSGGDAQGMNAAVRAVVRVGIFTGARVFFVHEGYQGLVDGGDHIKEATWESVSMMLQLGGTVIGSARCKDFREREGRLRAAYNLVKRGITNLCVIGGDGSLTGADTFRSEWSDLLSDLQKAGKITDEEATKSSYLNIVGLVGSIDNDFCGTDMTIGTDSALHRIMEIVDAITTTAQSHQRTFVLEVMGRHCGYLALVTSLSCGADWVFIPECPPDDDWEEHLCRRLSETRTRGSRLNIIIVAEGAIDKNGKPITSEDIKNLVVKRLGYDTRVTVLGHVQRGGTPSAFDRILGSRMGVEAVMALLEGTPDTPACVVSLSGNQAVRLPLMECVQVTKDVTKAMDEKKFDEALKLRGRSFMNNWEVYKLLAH
Method: (§1) To evaluate the ability of selected compounds to suppress the activities of the recombinant human native and modified PFK-M and PFK-L enzymes, they were constructed in yeast S. cerevisiae as a host organism (S1 Text), partially purified, and their activities assayed (S2 Text).
(§2) S2 Text: PFK1 Enzymatic assays.
(§3) PFK1 activities were determined spectrophotometrically at 340 nm (Lambda 25 UV/VIS spectrophotometer, Perkin Elmer) as reported previously using a coupled reaction system. Unless otherwise stated, in a final volume of 1 mL, the assay mixture contained 50 mM HEPES buffer (pH 7.8), 1 mM DTE, 100 mM KCl, 5 mM MgCl2, 0.2 mM NADH, 0,025 to 2 mM F6P, 10% v/v polyethylene glycol (PEG 6000), 0.9 U/mL aldolase (Sigma-Aldrich, Steinheim, Germany), 15 U/mL triosephosphate isomerase, and 15 U/mL glycerol-3-phosphate dehydrogenase (Sigma-Aldrich, Steinheim, Germany). Before use, the auxiliary enzymes were dialyzed overnight at 4 °C against 50 mM HEPES buffer (pH 7.8) containing 1 mM DTE, with one buffer […]
(§4) induce inhibition. The enzyme concentration used in the kinetic assay was 0.2 µg/mL. […] Total protein concentrations of the samples were determined using a Bio-Rad protein assay (Bio-Rad, Hercules, Ca) with bovine y-globulin […]

[2] = biological target: T2, native nPFK-M enzyme (85 kDa) (Homo sapiens, UniProt P08237); test: PFK1 enzymatic assay, native nPFK-M; assay type: biochemical
T2 construct: made in house; host or cells: Saccharomyces cerevisiae pfk-null HD-114-8A
T2 sequence (P08237 1-780): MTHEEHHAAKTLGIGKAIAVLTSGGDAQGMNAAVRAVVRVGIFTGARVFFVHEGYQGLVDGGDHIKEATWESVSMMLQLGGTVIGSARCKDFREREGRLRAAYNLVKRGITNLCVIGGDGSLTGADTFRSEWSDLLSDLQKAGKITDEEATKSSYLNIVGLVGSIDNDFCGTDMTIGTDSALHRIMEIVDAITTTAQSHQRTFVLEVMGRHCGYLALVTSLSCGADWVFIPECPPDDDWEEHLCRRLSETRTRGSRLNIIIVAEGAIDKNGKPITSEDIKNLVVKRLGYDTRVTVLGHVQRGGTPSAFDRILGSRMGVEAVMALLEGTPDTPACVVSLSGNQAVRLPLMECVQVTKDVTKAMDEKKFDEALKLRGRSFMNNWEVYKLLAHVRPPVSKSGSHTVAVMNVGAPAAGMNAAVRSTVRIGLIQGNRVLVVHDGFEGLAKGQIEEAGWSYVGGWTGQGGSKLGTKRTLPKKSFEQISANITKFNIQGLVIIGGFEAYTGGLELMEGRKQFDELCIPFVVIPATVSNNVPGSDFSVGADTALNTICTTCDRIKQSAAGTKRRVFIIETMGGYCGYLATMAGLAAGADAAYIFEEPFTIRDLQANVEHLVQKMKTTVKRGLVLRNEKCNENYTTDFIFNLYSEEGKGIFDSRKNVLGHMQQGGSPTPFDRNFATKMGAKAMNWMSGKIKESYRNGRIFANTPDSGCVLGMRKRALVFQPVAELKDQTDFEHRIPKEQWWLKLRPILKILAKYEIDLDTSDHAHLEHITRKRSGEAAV
Method: as §1, §2, §3, §4

[3] = biological target: T3, modified sfPFK-L enzyme (70 kDa fragment) (Homo sapiens, UniProt P17858); test: PFK1 enzymatic assay, modified sfPFK-L; assay type: biochemical
T3 construct: 45.920 Da [2] and short PFK-L of 69.942 Da fragments [3], respectively; made in house; host or cells: Saccharomyces cerevisiae pfk-null HD-114-8A
T3 sequence (P17858 2-648): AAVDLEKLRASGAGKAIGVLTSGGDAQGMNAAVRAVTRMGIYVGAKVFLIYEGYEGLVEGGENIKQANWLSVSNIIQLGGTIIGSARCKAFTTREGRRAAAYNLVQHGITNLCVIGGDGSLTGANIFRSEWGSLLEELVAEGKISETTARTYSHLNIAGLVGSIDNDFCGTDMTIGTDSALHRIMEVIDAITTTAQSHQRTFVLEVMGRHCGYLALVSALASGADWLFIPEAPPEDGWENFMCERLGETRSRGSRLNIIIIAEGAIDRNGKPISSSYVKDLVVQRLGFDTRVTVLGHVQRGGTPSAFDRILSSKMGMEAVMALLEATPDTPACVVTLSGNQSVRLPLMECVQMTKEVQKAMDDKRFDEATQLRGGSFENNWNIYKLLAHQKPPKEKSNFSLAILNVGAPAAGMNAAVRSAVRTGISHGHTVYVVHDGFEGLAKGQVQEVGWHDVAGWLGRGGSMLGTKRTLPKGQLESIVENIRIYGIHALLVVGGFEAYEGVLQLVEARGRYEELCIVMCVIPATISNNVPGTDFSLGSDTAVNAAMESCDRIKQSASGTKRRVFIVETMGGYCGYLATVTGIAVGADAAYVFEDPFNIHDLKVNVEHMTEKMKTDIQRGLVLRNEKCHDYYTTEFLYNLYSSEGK
Method: as §1, §2, §3, §4

Caco-2 cells [4] = test: Dose-dependent inhibition of lactate formation; assay type: cell-based; details: 20, 40, 60, 80 µM, up to 72 hours
Method: (§5) If not specified differently, the tumorigenic cells were plated in the RPMI 1640 GlutaMax medium (Thermo Fisher Scientific, Waltham, MA, USA) supplemented with 10% FBS at the concentration of 5 × 10^5 cells per mL. The cells were incubated at 37 °C and 5% CO2. Different concentrations of specific inhibitors were added to the medium at the beginning of inoculation. An adequate amount of DMSO used in the solution with the specified concentrations of compounds was added to the vehicle.
(§6) For measuring lactate concentrations in the medium, 20 µL samples were taken at specified time intervals, centrifuged at 1200 rpm for 5 minutes at 4 °C and 15 µL supernatants were preserved at 4 °C until analyzed.
(§7) Lactate levels were assessed enzymatically using an L-Lactic acid assay kit (K-LATE, Megazyme, Bray, Ireland) and measured according to the manufacturer’s instructions.
(§8) The lactate formation, growth yield, and survival under normal and inhibitory conditions of four tumorigenic cell lines were investigated. […] Cells were grown in the presence of vehicles or inhibitors at different concentrations (20, 40, 60, and 80 µM), and lactate levels in the supernatant were determined sequentially.

Jurkat cells [5] = test: Dose-dependent inhibition of lactate formation; assay type: cell-based; details: for Stability of the compounds during incubation, indicated by increasing lactate formation in later phases: Jurkat cell culture medium, after 24 hours up to 72 hours; for Lactate formation in the first 24 hours: Jurkat cells, 20, 40, 60, 80 µM, regardless of concentration, later dose-dependent lactate production up to 72 hours
Method: as §5, §6, §7, §8

MDA-MB-231 cells [6] = test: Dose-dependent inhibition of lactate formation; assay type: cell-based; details: 20, 40, 60, 80 µM, up to 72 hours
Method: as §5, §6, §7, §8

COLO 829 cells [7] = test: Dose-dependent inhibition of lactate formation; assay type: cell-based; details: 20, 40, 60, 80 µM, up to 72 hours
Jurkat cells [8] = test: Cytostatic assay (XTT cell proliferation); assay type: cell-based; details: 20-80 µM
Method: (§9) Untreated cells and cells treated with different concentrations of inhibitors were incubated for 72 hours before alive cellular biomass was determined according to the manufacturer’s instructions.
To investigate possible cytostatic effects of the inhibitors, the total cell number of Jurkat cells treated with vehicles of different concentrations of inhibitors was determined immediately after incubation.

COLO 829 cells [9] = test: Cytostatic assay (XTT cell proliferation); assay type: cell-based; details: up to 80 µM, 72 hours
Method: as §9

Caco-2 cells [10] = test: Cytostatic assay (XTT cell proliferation); assay type: cell-based; details: up to 80 µM, 72 hours
Method: as §9

MDA-MB-231 cells [11] = test: Cytostatic assay (XTT cell proliferation); assay type: cell-based; details: up to 80 µM, 72 hours
Method: as §9

Jurkat cells [12] = assay type: cell-based
Method: (§10) As a negative control, 100 µL Triton X-100 was added to wells containing 1mL medium with cells. For the survival evaluation in the dose-dependent tests, the measurements were conducted at the end of incubation at 72 hours of growth in the medium.
The potential cytotoxicity of the inhibitors was also assessed. At the end of the incubation, the average percentage of dead cells was determined in the presence of a vehicle and a 80 µM concentration of each inhibitor.

COLO 829 cells [13] = assay type: cell-based; details: 72 hours
Method: as §10

Caco-2 cells [14] = assay type: cell-based; details: 72 hours
Method: as §10

MDA-MB-231 cells [15] = assay type: cell-based; details: 72 hours
Method: as §10

[16] = tested on: all tumorigenic cell lines tested; test: ROS/SOX reduction by sequential re-insertion, statement for all lines; assay type: cell-based; details: sequentially re-added every 24 hours
Method: After 78 hours cells were washed by centrifugation, and an aliquot of 1 × 10^5 cells was placed into 1 mL of phenol red-free IMDM medium (Thermo Fisher Scientific, Waltham, MA, USA) supplemented with 10% of FBS. The cells were incubated for an additional 3 hours before measurement.
For detecting ROS and SOX levels in the cells, 100 µL of medium was washed with PBS by standard centrifugation protocol and then placed into a well on the 96-well black wall/clear bottom plate. To each well 100 µL ROS detection reagent (Green) and SOX detection reagent (Orange) were added as specified in the Cellular ROS/SOX Detection Assay Kit (ab139476 Abcam, Cambridge, UK). For measuring superoxide Cellular Superoxide Detection Assay Kit (ab139477 Abcam, Cambridge, UK) was used that contains “Orange” but not the “Green” reagent.

[17] = 10 µM sequentially added every 24 hours

IC50 [1]: 15 µM and ~15 µM | IC50 [2]: 18 µM
Structure (SMILES): O=C(CSc1nnc(-c2ccc3c(c2)OCO3)o1)Nc1ccon1 [cmpd No. 3, 2-[(5-benzo[1,3]dioxol-5-yl-1,3,4-oxadiazol-2-yl)sulfanyl]-N-isoxazol-3-yl-acetamide]

IC50 [3]: 8 µM | Stability of the compounds during incubation, indicated by increasing lactate formation in later phases (Jurkat cells [5]): instability
Structure (SMILES): Nc1nnc(-c2cc(-c3ccc(O)cc3)on2)o1 [cmpd No. 30, 4-[3-(5-amino-1,3,4-oxadiazol-2-yl)isoxazol-5-yl]phenol]
Lactate accumulation, dose-dependent test (Caco-2 cells [4]): dose-dependent reduction in lactate accumulation | Lactate formation in the first 24 hours (Jurkat cells [5]): no or only small amounts of lactate | Lactate suppression, dose-dependent test (MDA-MB-231 cells [6]): Dose-dependent effects

Stability of the compounds during incubation, indicated by increasing lactate formation in later phases (Jurkat cells [5]): instability | Average percentage of dead cells (Jurkat cells [12]; 80 µM, end of incubation 72 hours): 3.74 ± 0.3% | Average percentage of dead cells, sequentially treated (Jurkat cells [12]; 10 µ L sequentially added every 24 hours, 72 hours): 3.24 ± 0.25% | Average percentage of dead cells, sequentially treated (COLO 829 cells [13]; [17]): 2.84 ± 0.19% | Average percentage of dead cells (COLO 829 cells [13]; dose-dependent test): 3.65 ± 0.78% | Average percentage of dead cells, sequentially treated (Caco-2 cells [14]; [17]): 4.03 ± 0.32% | Average percentage of dead cells (Caco-2 cells [14]; dose-dependent test, different concentrations of inhibitors): 3.33 ± 0.14% | Average percentage of dead cells, sequentially treated (MDA-MB-231 cells [15]; [17]): 2.35 ± 0.09% | Average percentage of dead cells (MDA-MB-231 cells [15]; dose-dependent test): 6.59 ± 0.29%
Structure (SMILES): COc1ccc(-c2cccc(-c3ccn(Cc4noc(C)n4)n3)c2)nn1 [cmpd No. 9, 3-methoxy-6-(3-{1-[(5-methyl-1,2,4-oxadiazol-3-yl)methyl]-1H-pyrazol-3-yl}phenyl)pyridazine]
Lactate formation, dose-dependent test (COLO 829 cells [7]): Apparent dose-dependent effects of suppressed lactate formation | Lactate accumulation, dose-dependent test (Caco-2 cells [4]): dose-dependent reduction in lactate accumulation | Lactate formation in the first 24 hours (Jurkat cells [5]): no or only small amounts of lactate | Lactate suppression, dose-dependent test (MDA-MB-231 cells [6]): Dose-dependent effects | Cytostatic effect (cells counted after 72 hours of incubation) (Jurkat cells [8]): no significant cytostatic | Cytostatic effect (total cell number compared to the control) (COLO 829 cells [9]): No significant differences in the total cell number | Cytostatic effect (total number of cells at the end of incubation) (Caco-2 cells [10]): no adverse effects on cell growth | Cytostatic effect (total cell number) (MDA-MB-231 cells [11]): No significant differences in total cell number | Reduction of ROS formation ([16]; 5 µM): approximately 50% | Reduction of ROS formation ([16]; 10 and 20 µM): approximately 65%
